Assays:
[1] = Solubility Test Method (solubility in hexanes); type: physicochemical; conditions: hexanes containing at least 60 wt % n-hexane; room temperature and ambient pressure
Protocol: Solubility Test Method: to a 20-mL vial is added, at room temperature and ambient pressure, a known mass of test precatalyst (e.g., compound (1)) and a known volume of hexanes containing at least 60 weight percent n-hexane. A PTFE-coated magnetic stir bar is added and the mixture is allowed to stir for 1 hour before the vial is removed from the stir plate, and the mixture is allowed to sit overnight. The next day the suspension is filtered through a 0.4 μm PTFE syringe filter into a tared vial, giving a known mass of supernatant, and the hexanes are removed under reduced pressure, leaving a measurable mass of the compound of formula (1) from which wt. % solubility is calculated.

[2] = Light-off Test Method (time to maximum temperature in polymerization of 1-octene); conditions: for Light-off Performance (Time to Maximum (minutes)): 8 micromoles precatalyst, 0.16 g spray dried methylaluminoxane, 11 mL 1-octene
Protocol: Light-off Test Method: Under an atmosphere of nitrogen in a glovebox, charge a 40 mL glass vial with a PTFE-coated, magnetic stir bar and 0.16 g of spray dried methylaluminoxane powder of Preparation 1A. To the charged vial add 11 mL of 1-octene, and then insert the vial into an insulated sleeve mounted on a magnetic stir plate turning at approximately 300 rotations per minute (rpm). To the insulated vial add 8 micromoles (μmol) of precatalyst (e.g., compound (1) or HN5Zr dibenzyl). Cap the vial with a rubber septum. Insert a thermocouple probe through the rubber septum into the vial such that the tip of the thermocouple probe is below the liquid level. Record the temperature of the contents of the vial at 5 second intervals, continuing until after the maximum temperature is reached. Download the temperature and time data to a spreadsheet, and plot thermo-kinetic profiles for analysis.

Molecule	Solubility in Hexanes (wt %) [1]	Light-off Performance (Time to Maximum (minutes)) [2]	time to maximum temperature, times better than HN5Zr dichloride (CE1) ([2]; relative to HN5Zr dichloride (CE1))
Cc1c(C)c(C)c([N-]CCNCC[N-]c2c(C)c(C)c(C)c(C)c2C)c(C)c1C.[CH2-]c1ccccc1.[CH2-]c1ccccc1.[Zr+4] [HN5Zr dibenzyl (CE2)]	0.03 wt %	78.6 min	
Cc1c(C)c(C)c([N-]CCNCC[N-]c2c(C)c(C)c(C)c(C)c2C)c(C)c1C.[Cl-].[Cl-].[Zr+4] [HN5Zr dichloride (CE1)]		5.2 min	
bis(2-(pentamethylphenylamido)ethyl)-amine zirconium(IV) bis-trimethylsilylmethyl [Compound (1A)]		1.3 min	4 times
